Assay results taken from patent US12662473B2, “Inhibitors for programmed cell necrosis and preparation method therefor and use thereof” (SHANGHAI INSTITUTE OF ORGANIC CHEMISTRY, CHINESE ACADEMY OF …, priority 2019, dated 2026).
Where two headings read alike, the source gives them in different places.

Columns and labels:
FADD−/− Jurkat cells = test: TNF-induced programmed cell necrosis inhibition, Cell Titer-Glo viability; format: cell-based
Excerpt: (§1) The adopted biological assay protocol was: the programmed necroptosis effect of compounds on TNF-induced in FADD (Fas-Associated Death Domain) deficient Jurkat cells and L929 cells.
(§2) In order to verify the inhibitory effect of the compounds of the present invention on programmed cell necrosis at the cellular level, cell types closely related to the RIP1 pathway, namely FADD deficient Jurkat cells (human peripheral blood leukemia T cell line) and L929 cells, were selected. Two different stimulation methods were used: tumor necrosis factor (TNFα) used alone, or TNFα used in combination with mitochondria-derived cysteine aspartate activator (SMAC). Cells viability was calculated by detecting chemiluminescence values, and the biological activity of the compound for inhibiting programmed cell necrosis can be obtained.
(§3) Methods: FADD deficient Jurkat cells: FADD deficient Jurkat cells (human peripheral blood leukemia T cell line) were cultured in vitro. After growing to the logarithmic growth phase, the cells were collected, centrifuged at 1000 rpm for 5 min, the supernatant was discarded, and the cell concentration was adjusted to 2.5×10^5/mL. Cells were seeded into 384-well plates, 40 μl per well. 5 μL of Smac (50 nM) diluted in cell culture medium and 5 μL of each compound were added to the corresponding wells. After pretreatment at 37° C. for 1 h, 5 μL of TNFα (50 ng/mL) diluted in cell culture medium was added to each well of the stimulation group, and 5 μL of the culture medium was added to the control group. The plate was cultured in a cell incubator (37° C., 5% CO2) for 14 h, and 15 μl of Cell Titer-Glo solution was added to each well, then incubated for 30 min at room temperature, and intracellular ATP level was measured by detecting luminescence. The unstimulated DMSO control wells were taken as 100% cell viability. L929 cells: The L929 cells (mouse fibroblasts) were cultured in vitro, digested and diluted to 6.25×10^4/ml, and the cells were seeded into 384-well plates, 40 μl per well. The plate was placed in a cell incubator (37° C., 5% CO2) for 12 hours. 5 μL of Smac (500 nM) diluted in cell culture medium and 5 μL of each compound were added to the corresponding wells. After pretreatment at 37° C. for 1 h, 5 μL of TNFα (500 ng/mL) diluted in cell culture medium was added to each well of the stimulation group, and 5 μL of the culture medium was added to the control group. After the plate was cultured for 14 h in a cell incubator (37° C., 5% CO2), 15 μl of Cell Titer-Glo solution was added to each well. The plate was incubated at room temperature for 30 min, and intracellular ATP level was measured by detecting luminescence. The unstimulated DMSO control wells were taken as 100% cell viability. EC50 values of the compounds were calculated using Prism Graphpad statistical software.
FADD deficient Jurkat cells: FADD deficient Jurkat cells (human peripheral blood leukemia T cell line) were cultured in vitro. After growing to the logarithmic growth phase, the cells were collected, centrifuged at 1000 rpm for 5 min, the supernatant was discarded, and the cell concentration was adjusted to 2.5×10^5/mL. Cells were seeded into 384-well plates, 40 μl per well. 5 μL of Smac (50 nM) diluted in cell culture medium and 5 μL of each compound were added to the corresponding wells. After pretreatment at 37° C. for 1 h, 5 μL of TNFα (50 ng/mL) diluted in cell culture medium was added to each well of the stimulation group, and 5 μL of the culture medium was added to the control group. After the plate was cultured in a cell incubator (37° C., 5% CO2) for 14 h, 15 μl of Cell Titer-Glo solution was added to each well. The mixture was incubated for 30 min at room temperature, and intracellular ATP level was measured by detecting luminescence. The unstimulated DMSO control wells were taken as 100% cell viability.

L929 cells = test: as above; format: cell-based, mouse; conditions: read-out: EC50 inhibitory activity on programmed cell necrosis
Excerpt: as §1, §2, §3
L929 cells: The L929 cells (mouse fibroblasts) were cultured in vitro, digested and diluted to 6.25×10^4/ml, and the cells were seeded into 384-well plates, 40 μl per well. The plate was placed in a cell incubator (37° C., 5% CO2) for 12 hours. 5 μL of Smac (500 nM) diluted in cell culture medium and 5 μL of each compound were added to the corresponding wells. After pretreatment at 37° C. for 1 h, 5 μL of TNFα (500 ng/mL) diluted in cell culture medium was added to each well of the stimulation group, and 5 μL of the culture medium was added to the control group. After the plate was cultured for 14 h in a cell incubator (37° C., 5% CO2), and 15 μl of Cell Titer-Glo solution was added to each well, then incubated at room temperature for 30 min, and intracellular ATP level was measured by detecting luminescence. The unstimulated DMSO control wells were taken as 100% cell viability.

[1] = Homo sapiens, Jurkat, 14 h, TNFa + SM164, read-out: EC50 inhibitory activity on programmed cell necrosis
[2] = Homo sapiens, Jurkat, TNFa, read-out: EC50 inhibitory activity on programmed cell necrosis
[3] = Mus musculus, L929, 14 h, L929 cells (mouse), TNFa + SM164
[4] = Mus musculus, L929, L929 cells (mouse), TNFa

Row | SMILES | EC50 (FADD−/− Jurkat cells; [1]) [nM] | EC50 (FADD−/− Jurkat cells; [2]) [nM] | EC50 (L929 cells; [3]) [nM] | EC50 (L929 cells; [4]) [nM] | EC50 (FADD−/− Jurkat cells; FADD−/− Jurkat cells (human), TNFa + SM164, read-out: EC50 inhibitory activity on programmed cell necrosis) [nM] | EC50 (FADD−/− Jurkat cells; FADD−/− Jurkat cells (human), TNFa, read-out: EC50 inhibitory activity on programmed cell necrosis) [nM] | EC50 (L929 cells; L929 cells (mouse), TNFa) [nM]
1 | Cc1noc([C@@H]2CCCN2C(=O)C(C)(C)N(C)c2ccc(Cl)cc2)n1 [QY-3-86] | 8680 | 13500 | > 10000 | > 10000 |  |  | 
2 | Cc1noc([C@@H]2CCCN2C(=O)C(C)(C)Oc2ccc(F)cc2)n1 [QY-2-26] | > 10000 | 417 | 982 | 182 |  |  | 
3 | COc1cc(C#N)ccc1OC(C)(C)C(=O)N1CCCC1c1ccc(Cl)cc1 (stereo not shown) [QY-12-11] | 178 | 6.72 | 16.6 | 6.06 |  |  | 
4 | CCN(CC)Cc1noc([C@@H]2CCCN2C(=O)C(C)(C)Oc2ccc(Cl)cc2)n1 [QY-3-51] | > 10000 | 59200 | > 10000 | > 10000 |  |  | 
5 | Cc1noc([C@@H]2CCCN2C(=O)C2(Oc3ccc(Cl)cc3)CCCC2)n1 [QY-3-46] | 5830 | 789 | > 10000 | 2010 |  |  | 
6 | Cc1ccc(C2CCCN2C(=O)C(C)(C)Oc2ccc(C#N)cn2)cc1 (stereo not shown) [QY-13-68] | 2420 | 27 | 4.52 | 2.06 |  |  | 
7 | Cc1noc([C@@H]2CCCN2C(=O)C(C)(C)Oc2ccccc2)n1 [QY-2-25] | > 10000 | 6180 | > 10000 | 2670 |  |  | 
8 | Cc1ccc(C2CCCN2C(=O)C(C)(C)Oc2cc(C#N)ncn2)cc1 (stereo not shown) [QY-14-35] | > 10000 | > 10000 | > 10000 | > 10000 |  |  | 
9 | Cc1noc([C@@H]2CCCN2C(=O)C(C)(C)Oc2ccc(Cl)cc2C)n1 [QY-3-94] |  |  | 5220 |  | 2960 | 516 | 1410
10 | Cc1ccc(C2CCCN2C(=O)C(C)(C)Oc2ccc(C#N)c(C#N)c2)cc1 (stereo not shown) [QY-14-59] | > 10000 | 4570 | > 10000 | 467 |  |  | 
11 | CC(C)(C(=O)N1CCCC1c1ccc(Cl)cc1)n1ccc2cc(Cl)ccc21 (stereo not shown) [QY-11-15B] | > 10000 | > 10000 | > 10000 | > 10000 |  |  | 
12 | Cc1noc([C@@H]2CCCN2C(=O)C(C)(C)Oc2ccc(I)cc2)n1 [QY-2-75] | 5150 | 608 | > 10000 | 2450 |  |  | 
13 | CC(C)(Oc1ccc(Cl)cc1F)C(=O)N1CCC[C@H]1c1ccc(F)cc1 [QY-6-62] | 117 | 3 | 174 | 44 |  |  | 
14 | COc1cc(Cl)ccc1OC(C)(C)C(=O)N1N=CCC1c1ccc(Cl)cc1 (stereo not shown) [QY-9-32] | 842 | 26.6 |  | 35.7 |  |  | 
15 | Cc1ccc(C2CCCN2C(=O)C(C)(C)C(=O)N2CCN(C)CC2)cc1 (stereo not shown) [QY-14-9] | > 10000 | > 10000 | > 10000 | > 10000 |  |  | 
16 | Cc1ccc(C2CCCN2C(=O)C(C)(C)C(=O)n2cccn2)cc1 (stereo not shown) [QY-14-30] | > 10000 | > 10000 | > 10000 | 4890 |  |  | 
17 | COc1cccc(C2CCCN2C(=O)C(C)(C)Oc2ccc(Cl)cc2F)c1 (stereo not shown) [QY-4-70] | > 10000 | > 10000 | > 10000 | 1780 |  |  | 
18 | CC(C)(Oc1ccc(Cl)cc1F)C(=O)N1CCC[C@H]1c1ccccc1 [QY-6-84] | 439 | 27 | 216 | 25 |  |  | 

Row | SMILES | EC50 (FADD−/− Jurkat cells; [1]) [nM] | EC50 (FADD−/− Jurkat cells; [2]) [nM] | EC50 (L929 cells; [3]) [nM] | EC50 (L929 cells; [4]) [nM] | EC50 (FADD−/− Jurkat cells; FADD−/− Jurkat cells (human), TNFa + SM164, read-out: EC50 inhibitory activity on programmed cell necrosis) [nM] | EC50 (FADD−/− Jurkat cells; FADD−/− Jurkat cells (human), TNFa, read-out: EC50 inhibitory activity on programmed cell necrosis) [nM] | EC50 (L929 cells; L929 cells (mouse), TNFa) [nM]
19 | Cc1ccc(C2CCCN2C(=O)C(C)(C)Oc2ccc(Cl)cc2C#N)cc1 (stereo not shown) [QY-4-66] | 2190 | 544 | 1280 | 392 |  |  | 
20 | CC(C)(Oc1ccc(Cl)cc1)C(=O)N1CCCC1c1ccc(Cl)cc1 (stereo not shown) [QY-4-6] | 776 | 116 | 292 | 65 |  |  | 
21 | CNC(=O)c1cccc(OC(C)(C)C(=O)N2CCCC2c2ccc(C)cc2)c1 (stereo not shown) [QY-14-25] | > 10000 | > 10000 | > 10000 | > 10000 |  |  | 
22 | Cc1noc([C@@H]2CCCN2C(=O)C(C)(C)Oc2ccc(Oc3ccccc3)cc2)n1 [QY-2-78] | > 10000 | 127 | > 10000 | > 10000 |  |  | 
23 | CCCCc1noc([C@@H]2CCCN2C(=O)C(C)(C)Oc2ccc(Cl)cc2)n1 [QY-2-103] | > 10000 | > 10000 | > 10000 | > 10000 |  |  | 
24 | CC(C)(Oc1ccc(Cl)cc1)C(=O)N1CCCC1c1cccc(Cl)c1 (stereo not shown) [QY-4-35] | > 10000 | 4090 | > 10000 | 3700 |  |  | 
25 | Cc1ccc(C2CCCN2C(=O)C(C)(C)C(=O)N2CCCC2)cc1 (stereo not shown) [QY-14-29] | > 10000 | > 10000 | > 10000 | > 10000 |  |  | 
26 | CC(C)(Oc1ccc(Cl)cc1)C(=O)N1CCC[C@H]1c1nccs1 [QY-2-39] | > 10000 | 1060 | 8920 | 1900 |  |  | 
27 | CNC(=O)c1ccc(OC(C)(C)C(=O)N2CCCC2c2ccc(C)cc2)c(F)c1 (stereo not shown) [QY-6-63] | > 10000 | 4290 | 7800 | 3150 |  |  | 
28 | COc1cc(Cl)ccc1OC(C)(C)C(=O)N1CCCC1c1ccc(Cl)cc1 (stereo not shown) [QY-9-43] | 1150 | 0.16 |  | 21 |  |  | 
29 | CC(C)(Oc1ccc(Cl)cc1F)C(=O)N1CCCC1c1ccc(C(F)(F)F)cc1 (stereo not shown) [QY-5-83] | 7720 | 1290 | > 10000 | 8750 |  |  | 
30 | CC(C)(C(=O)N1CCCC1c1ccc(Cl)cc1)n1cnc2cc(Cl)ccc21 (stereo not shown) [QY-11-16B] | > 10000 | > 10000 | > 10000 | > 10000 |  |  | 
31 | Cc1noc([C@@H]2CCCN2C(=O)COc2ccc(Cl)cc2)n1 [QY-3-4] | > 10000 | > 10000 | 59100 | > 10000 |  |  | 
32 | COc1cc(Cl)ccc1NC(C)(C)C(=O)N1CCCC1c1ccc(Cl)cc1 (stereo not shown) [QY-10-104] | 794 | 106 | 66.2 | 13.6 |  |  | 
33 | COc1cc(Cl)ccc1OC(C)(C)C(=O)N1CCCC1c1ccc(C)cc1 (stereo not shown) [QY-9-8] | 1.6 | 0.43 | 138 | 0.44 |  |  | 
34 | CC(C)(Oc1ccc(Cl)cc1F)C(=O)N1CCCC1c1cccc(C#N)c1 (stereo not shown) [QY-4-69] | 9380 | 1540 | 3630 | 650 |  |  | 
35 | Cc1ccc(C2CCCN2C(=O)C(C)(C)Oc2ncc(Cl)cn2)cc1 (stereo not shown) [QY-13-70] | > 10000 | 477 | 1930 | 221 |  |  | 
36 | CN(C)C(=O)c1noc([C@@H]2CCCN2C(=O)C(C)(C)Oc2ccc(Cl)cc2)n1 [QY-3-65] | > 10000 | > 10000 | > 10000 | > 10000 |  |  | 
